Laboratory results: patent US20260256924A1, “INDOCYANINE GREEN (ICG) MODIFICATION FOR TREATMENT OF LIVER CANCER” (The Children's Medical Center Corporation, priority 2022, published 2026)
“Also recorded” adds a separate entry of the source.

Columns and labels:
[1] = [18F]SFB-ICG stability by HPLC (RCP); assay type: physicochemical
Method: FIGS. 11A-11B show HPLC traces of [^18F]SFB-ICG stability at 1 hour, and 2 hours.

Huh7 tumor cells = experiment: In vivo fluorescence imaging following ICG administration in Huh7 xenograft mice; design: species or system immunodeficient mice; settings: 0.5 mg/kg ICG dose, FIG. 32
Method: Other areas of high signal represents concentration within the intestinal lumen. Control mouse without tumor is shown on the left side.
Xenotransplantation of the following cell lines is performed: FLX1 (FLC), Huh-7 (HCC) and HepG2 (well-differentiated HCC) in immunodeficient mice. […] Therefore, the dose is escalated to an appropriate level. Even though the majority of the models use HCC cells, the findings are applicable to FLC since FLC also has the ability to retain ICG (FIGS. 31A-31D). Currently, there is only one readily available FLC cell line, which also has the property to be engrafted in an immunodeficient mouse model.

FLC tumor tissue = experiment: Gross and microscopic ICG localization in FLC patients (near-infrared fluorescence at surgery); assay type: in vivo, patient; settings: intravenous ICG 48 hours prior to surgery, FIGS. 31A-31D
Method: ICG is administered several days prior to surgery, which subsequently is cleared from the blood and normal liver but is retained in tumor tissue. At the time of surgery, a near-infrared camera is used to identify ICG retaining tumor tissue since it fluoresces in response to near-infrared wave.^22,23 The use of ICG for localization of HCC and hepatoblastoma has been reported^16-18,21,22,30 however, there are no published reports regarding its use in FLC. […] The MDR3 transporter, which is responsible for export of ICG into the bile canaliculi is also expressed in tumor cells, albeit at lower levels.

[2] = In vivo biodistribution of 18F-SFB-ICG in wild type mice by whole body PET/CT; design: species or system female C57BL/6 mice
Method: (§1) The study was comprised of female C57BL/6 mice (n=4, 20.4+0.8 g, age 12.9 weeks). The modalities were whole body PET/CT and whole blood gamma counting which were performed on the mice using the imaging agent ^18F-SFB-ICG as outlined in Table 1. Briefly, the mice were imaged in a 2-bed imaging hotel with imaging agent administered intravenously while animals were on camera (volume dosed was maintained constant to keep mass dose constant). 1 hour dynamic PET data was acquired, followed by CT. A static 30 minute PET dataset was acquired at 4 hours, also followed by CT. A blood sample was taken immediately following each imaging time point for gamma counting.
PET/CT: PET images were co-registered to CT images and resampled to uniform voxel size (0.2 mm^3). The injected activity doses were normalized to the averaged activity in the field of view (FOV) in the final 6 frames of the dynamic scan (FOV-based normalization). The Regions of Interest (ROIs) were defined using various methods in VivoQuant software: A fixed volume ellipsoidal ROI was placed in the center of the heart, to encompass a volume of representative concentration for that region. The fixed volume sphere ROIs were placed in the center of the lobes of the lungs (2), and throughout the spleen (3) to encompass a volume of representative concentration for those regions. Based on the CT and PET, the following organs were segmented as completely as possible: liver, gallbladder, small intestines, cecum, and large intestines. The activity concentration was reported as Standardized Uptake Value (SUV), equating to the […]. For fully segmented organs, uptake was also reported in percentage injected dose (% ID). FIGS. 17A-17D show resulting PET/CT images of a representative wild type mouse.

[3] = Whole blood gamma counting after 18F-SFB-ICG injection; assay type: in vivo, female C57BL/6 mice; settings: FIG. 24B
Method: as §1
Gamma Counting: Whole blood samples were collected after each imaging session for ex vivo radioactivity analysis by gamma counting. Triplicates of ^18F-SFB-ICG were also counted to calculate an efficiency factor from which counts could be converted to units of activity (μCi). The sample activities were corrected for background radiation and decay-corrected to the injection time. The tissue volumes were estimated through measurement of sample weights, and blood activity was reported as % ID/g and SUV.

## CC1(C)C(/C=C/C=C/C=C/C=C2/N(CCCCCC(=O)NCCNC(=O)c3ccc([18F])cc3)c3ccc4ccccc4c3C2(C)C)=[N+](CCCCS(=O)(=O)[O-])c2ccc3ccccc3c21 [[^18F]SFB-ICG]
[1]; at 1 hour
  RCP (stability): 95%
[1]; at 2 hours
  RCP (stability): 96%

## CC1(C)C(/C=C/C=C/C=C/C=C2\N(CCCCS(=O)(=O)O)c3ccc4ccccc4c3C2(C)C)=[N+](CCCCS(=O)(=O)[O-])c2ccc3ccccc3c21 [ICG, indocyanine green]
Huh7 tumor cells
  uptake by implanted Huh7 tumor cells: demonstrate uptake; also recorded: ICG uptake by Huh7 tumor cells
FLC tumor tissue
  ICG uptake/accumulation in FLC tumor tissue and metastases: accumulation of ICG in metastatic tumor bed; also recorded: fluorescence (white) within tumor cells; also recorded: accumulates in FLC; also recorded: ICG uptake by tumor tissue in the liver as well as metastatic deposits

## CC1(C)C(/C=C/C=C/C=C/C=C2/N(CCCCCC(=O)NCCNC(=O)c3ccc([18F])cc3)c3ccc4ccccc4c3C2(C)C)=[N+](CCCCS(=O)(=O)[O-])c2ccc3ccccc3c21 [^18F-SFB-ICG]
[2]; at 4 hours post injection
  tracer localization: most intense signal is present within the lumen of the intestines
[2]; by 5 minutes post injection
  tracer localization: majority of the tracer is localized to the liver
[2]; time activity curves, FIGS. 18A-18B
  PET signal in large intestines and cecum: not observed until the 4 hour time point

## CC1(C)C(/C=C/C=C/C=C/C=C2/N(CCCCCC(=O)NCCNC(=O)c3ccc([18F])cc3)c3ccc4ccccc4c3C2(C)C)=[N+](CCCCS(=O)(=O)[O-])c2ccc3ccccc3c21 [[^18F]ICG]
[2]; IV, wild-type mice
  time to evidence of excretion of the tracer into the gallbladder via the biliary system: ≤ 20 min
  time to evidence of the tracer in the lumen of the small intestine: ≤ 45 min
[2]; at 4 hours post injection
  signal intensity in the liver: decreased significantly
  tracer localization: majority of the tracer is localized to the lumen of the intestines
[2]; by 5 minutes post injection
  tracer localization: predominantly localized to the liver
[2]; cecum, at 4 hours, IV, wild-type mice
  percentage of injected dose localized to the cecum: approximately 30 % ID
[2]; by 10 minutes, IV, wild-type mice, FIG. 18B
  percentage of injected dose localized to the liver: ~70%
[2]; by 4 hours, IV, wild-type mice
  percentage of injected dose localized to the liver: about 40 % ID
[2]; organs other than liver
  uptake by other organs via the circulation: no significant uptake by any other organs
[2]; time 0 post injection
  tracer localization: localized to the heart and the major vessels
[3]; 1 hour
  activity present in whole blood: 2-2.5 % ID
[3]; 4 hours
  activity present in whole blood: 1 % ID
